Data taken from PubChem BioAssay (NCI).
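The compound was tested at five concentrations on cells cultured in 96-well plates, with a 48-hour exposure period. TGI: concentration producing complete growth inhibition.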

These molecules were tested on EKVX NSCLC (assay: inhibition of tumour cell growth, NCI panel, 48 h).

| Structure (SMILES) | TGI [µM] |
| --- | --- |
| Cc1cc2ccc(N)nc2[nH]c1=O | > 100 |
| O=C(N/N=C\c1ccc([N+](=O)[O-])s1)c1ccncc1 | 45.6 |
| C=C1C(=O)OC2C3OC(C)(CCC(O)C3COC(C)=O)CC(OC(=O)/C(=C/C)COC(C)=O)C12 (stereo unspecified) | 1.61 |
| COc1ccccc1NC(=S)N/N=C/c1cccc(C)n1 | > 100 |
| CCOC(=O)/C=C/[C@@H](CC)O[Si](C(C)C)(C(C)C)C(C)C | > 100 |
| Cc1c(O)c(=O)ccn1CCc1ccc(O)cc1 | 93.3 |

These molecules were tested on MALME-3M melanoma (assay: inhibition of tumour cell growth, NCI panel, 48 h).

| Structure (SMILES) | TGI [µM] |
| --- | --- |
| Nc1cc2c3c(cccc3c1)C(=O)N(c1ccc(OCCN3CCCC3)cc1)C2=O | 35.9 |
| Cc1cc2ccc(N)nc2[nH]c1=O | > 100 |
| O=C(N/N=C\c1ccc([N+](=O)[O-])s1)c1ccncc1 | 23.3 |
| C=C1C(=O)OC2C3OC(C)(CCC(O)C3COC(C)=O)CC(OC(=O)/C(=C/C)COC(C)=O)C12 (stereo unspecified) | 0.0763 |
| COc1ccccc1NC(=S)N/N=C/c1cccc(C)n1 | > 81.2 |
| CCOC(=O)/C=C/[C@@H](CC)O[Si](C(C)C)(C(C)C)C(C)C | > 100 |
| Cc1c(O)c(=O)ccn1CCc1ccc(O)cc1 | 65.8 |

The molecules below were run on UACC-62 melanoma (assay: inhibition of tumour cell growth, NCI panel, 48 h).

| Structure (SMILES) | TGI [µM] |
| --- | --- |
| Nc1cc2c3c(cccc3c1)C(=O)N(c1ccc(OCCN3CCCC3)cc1)C2=O | 33.3 |
| Cc1cc2ccc(N)nc2[nH]c1=O | > 100 |
| O=C(N/N=C\c1ccc([N+](=O)[O-])s1)c1ccncc1 | 15.7 |
| C=C1C(=O)OC2C3OC(C)(CCC(O)C3COC(C)=O)CC(OC(=O)/C(=C/C)COC(C)=O)C12 (stereo unspecified) | 0.971 |
| COc1ccccc1NC(=S)N/N=C/c1cccc(C)n1 | 15.1 |
| CCOC(=O)/C=C/[C@@H](CC)O[Si](C(C)C)(C(C)C)C(C)C | > 100 |
| Cc1c(O)c(=O)ccn1CCc1ccc(O)cc1 | 12.8 |

Each molecule was assayed on OVCAR-3 ovarian (assay: inhibition of tumour cell growth, NCI panel, 48 h).

| Structure (SMILES) | TGI [µM] |
| --- | --- |
| Nc1cc2c3c(cccc3c1)C(=O)N(c1ccc(OCCN3CCCC3)cc1)C2=O | 29.7 |
| O=C(N/N=C\c1ccc([N+](=O)[O-])s1)c1ccncc1 | 8.06 |
| C=C1C(=O)OC2C3OC(C)(CCC(O)C3COC(C)=O)CC(OC(=O)/C(=C/C)COC(C)=O)C12 (stereo unspecified) | 0.983 |
| COc1ccccc1NC(=S)N/N=C/c1cccc(C)n1 | > 100 |
| CCOC(=O)/C=C/[C@@H](CC)O[Si](C(C)C)(C(C)C)C(C)C | > 100 |
| Cc1c(O)c(=O)ccn1CCc1ccc(O)cc1 | 63.4 |

The molecules below were run on MOLT-4 leukemia (assay: inhibition of tumour cell growth, NCI panel, 48 h).

| Structure (SMILES) | TGI [µM] |
| --- | --- |
| Nc1cc2c3c(cccc3c1)C(=O)N(c1ccc(OCCN3CCCC3)cc1)C2=O | 55.8 |
| O=C(N/N=C\c1ccc([N+](=O)[O-])s1)c1ccncc1 | > 63.2 |
| C=C1C(=O)OC2C3OC(C)(CCC(O)C3COC(C)=O)CC(OC(=O)/C(=C/C)COC(C)=O)C12 (stereo unspecified) | 0.389 |
| COc1ccccc1NC(=S)N/N=C/c1cccc(C)n1 | > 100 |
| CCOC(=O)/C=C/[C@@H](CC)O[Si](C(C)C)(C(C)C)C(C)C | > 100 |
| Cc1c(O)c(=O)ccn1CCc1ccc(O)cc1 | > 100 |

What follows are molecules tested on HS 578T breast (assay: inhibition of tumour cell growth, NCI panel, 48 h).

| Structure (SMILES) | TGI [µM] |
| --- | --- |
| Nc1cc2c3c(cccc3c1)C(=O)N(c1ccc(OCCN3CCCC3)cc1)C2=O | 55.7 |
| Cc1cc2ccc(N)nc2[nH]c1=O | > 100 |
| O=C(N/N=C\c1ccc([N+](=O)[O-])s1)c1ccncc1 | 50.4 |
| C=C1C(=O)OC2C3OC(C)(CCC(O)C3COC(C)=O)CC(OC(=O)/C(=C/C)COC(C)=O)C12 (stereo unspecified) | 31.3 |
| COc1ccccc1NC(=S)N/N=C/c1cccc(C)n1 | > 100 |
| CCOC(=O)/C=C/[C@@H](CC)O[Si](C(C)C)(C(C)C)C(C)C | > 100 |
| Cc1c(O)c(=O)ccn1CCc1ccc(O)cc1 | 69.6 |

What follows are molecules tested on SNB-75 CNS (assay: inhibition of tumour cell growth, NCI panel, 48 h).

| Structure (SMILES) | TGI [µM] |
| --- | --- |
| Nc1cc2c3c(cccc3c1)C(=O)N(c1ccc(OCCN3CCCC3)cc1)C2=O | 25.3 |
| Cc1cc2ccc(N)nc2[nH]c1=O | > 100 |
| O=C(N/N=C\c1ccc([N+](=O)[O-])s1)c1ccncc1 | > 100 |
| C=C1C(=O)OC2C3OC(C)(CCC(O)C3COC(C)=O)CC(OC(=O)/C(=C/C)COC(C)=O)C12 (stereo unspecified) | 18.1 |
| COc1ccccc1NC(=S)N/N=C/c1cccc(C)n1 | 53.5 |
| CCOC(=O)/C=C/[C@@H](CC)O[Si](C(C)C)(C(C)C)C(C)C | > 100 |

Each molecule was assayed on CCRF-CEM leukemia (assay: inhibition of tumour cell growth, NCI panel, 48 h).

| Structure (SMILES) | TGI [µM] |
| --- | --- |
| Nc1cc2c3c(cccc3c1)C(=O)N(c1ccc(OCCN3CCCC3)cc1)C2=O | 69 |
| O=C(N/N=C\c1ccc([N+](=O)[O-])s1)c1ccncc1 | > 29.1 |
| C=C1C(=O)OC2C3OC(C)(CCC(O)C3COC(C)=O)CC(OC(=O)/C(=C/C)COC(C)=O)C12 (stereo unspecified) | 0.269 |
| COc1ccccc1NC(=S)N/N=C/c1cccc(C)n1 | > 100 |
| CCOC(=O)/C=C/[C@@H](CC)O[Si](C(C)C)(C(C)C)C(C)C | > 100 |
| Cc1c(O)c(=O)ccn1CCc1ccc(O)cc1 | 42 |

What follows are molecules tested on T-47D breast (assay: inhibition of tumour cell growth, NCI panel, 48 h).

| Structure (SMILES) | TGI [µM] |
| --- | --- |
| Nc1cc2c3c(cccc3c1)C(=O)N(c1ccc(OCCN3CCCC3)cc1)C2=O | 51.6 |
| Cc1cc2ccc(N)nc2[nH]c1=O | > 100 |
| O=C(N/N=C\c1ccc([N+](=O)[O-])s1)c1ccncc1 | 48.4 |
| C=C1C(=O)OC2C3OC(C)(CCC(O)C3COC(C)=O)CC(OC(=O)/C(=C/C)COC(C)=O)C12 (stereo unspecified) | 0.424 |
| COc1ccccc1NC(=S)N/N=C/c1cccc(C)n1 | > 100 |
| CCOC(=O)/C=C/[C@@H](CC)O[Si](C(C)C)(C(C)C)C(C)C | > 100 |
| Cc1c(O)c(=O)ccn1CCc1ccc(O)cc1 | > 100 |

These molecules were tested on BT-549 breast (assay: inhibition of tumour cell growth, NCI panel, 48 h).

| Structure (SMILES) | TGI [µM] |
| --- | --- |
| Nc1cc2c3c(cccc3c1)C(=O)N(c1ccc(OCCN3CCCC3)cc1)C2=O | 34.3 |
| Cc1cc2ccc(N)nc2[nH]c1=O | > 100 |
| O=C(N/N=C\c1ccc([N+](=O)[O-])s1)c1ccncc1 | 27.2 |
| C=C1C(=O)OC2C3OC(C)(CCC(O)C3COC(C)=O)CC(OC(=O)/C(=C/C)COC(C)=O)C12 (stereo unspecified) | 0.722 |
| COc1ccccc1NC(=S)N/N=C/c1cccc(C)n1 | > 100 |
| CCOC(=O)/C=C/[C@@H](CC)O[Si](C(C)C)(C(C)C)C(C)C | > 100 |
| Cc1c(O)c(=O)ccn1CCc1ccc(O)cc1 | > 100 |

What follows are molecules tested on HOP-62 NSCLC (assay: inhibition of tumour cell growth, NCI panel, 48 h).

| Structure (SMILES) | TGI [µM] |
| --- | --- |
| Nc1cc2c3c(cccc3c1)C(=O)N(c1ccc(OCCN3CCCC3)cc1)C2=O | 29.7 |
| O=C(N/N=C\c1ccc([N+](=O)[O-])s1)c1ccncc1 | 35.3 |
| C=C1C(=O)OC2C3OC(C)(CCC(O)C3COC(C)=O)CC(OC(=O)/C(=C/C)COC(C)=O)C12 (stereo unspecified) | 10.1 |
| COc1ccccc1NC(=S)N/N=C/c1cccc(C)n1 | > 62.9 |
| CCOC(=O)/C=C/[C@@H](CC)O[Si](C(C)C)(C(C)C)C(C)C | > 100 |
| Cc1c(O)c(=O)ccn1CCc1ccc(O)cc1 | > 100 |

Each molecule was assayed on SK-MEL-28 melanoma (assay: inhibition of tumour cell growth, NCI panel, 48 h).

| Structure (SMILES) | TGI [µM] |
| --- | --- |
| Nc1cc2c3c(cccc3c1)C(=O)N(c1ccc(OCCN3CCCC3)cc1)C2=O | 47 |
| O=C(N/N=C\c1ccc([N+](=O)[O-])s1)c1ccncc1 | > 64.9 |
| C=C1C(=O)OC2C3OC(C)(CCC(O)C3COC(C)=O)CC(OC(=O)/C(=C/C)COC(C)=O)C12 (stereo unspecified) | 0.431 |
| COc1ccccc1NC(=S)N/N=C/c1cccc(C)n1 | > 100 |
| Cc1c(O)c(=O)ccn1CCc1ccc(O)cc1 | > 100 |

What follows are molecules tested on IGROV1 ovarian (assay: inhibition of tumour cell growth, NCI panel, 48 h).

| Structure (SMILES) | TGI [µM] |
| --- | --- |
| Nc1cc2c3c(cccc3c1)C(=O)N(c1ccc(OCCN3CCCC3)cc1)C2=O | 36.4 |
| Cc1cc2ccc(N)nc2[nH]c1=O | > 100 |
| O=C(N/N=C\c1ccc([N+](=O)[O-])s1)c1ccncc1 | 26 |
| C=C1C(=O)OC2C3OC(C)(CCC(O)C3COC(C)=O)CC(OC(=O)/C(=C/C)COC(C)=O)C12 (stereo unspecified) | 2.85 |
| COc1ccccc1NC(=S)N/N=C/c1cccc(C)n1 | > 95.8 |
| CCOC(=O)/C=C/[C@@H](CC)O[Si](C(C)C)(C(C)C)C(C)C | > 100 |

What follows are molecules tested on NCI-H23 lung (assay: inhibition of tumour cell growth, NCI panel, 48 h).

| Structure (SMILES) | TGI [µM] |
| --- | --- |
| Nc1cc2c3c(cccc3c1)C(=O)N(c1ccc(OCCN3CCCC3)cc1)C2=O | 28.2 |
| Cc1cc2ccc(N)nc2[nH]c1=O | > 100 |
| O=C(N/N=C\c1ccc([N+](=O)[O-])s1)c1ccncc1 | 38.4 |
| C=C1C(=O)OC2C3OC(C)(CCC(O)C3COC(C)=O)CC(OC(=O)/C(=C/C)COC(C)=O)C12 (stereo unspecified) | 2.93 |
| COc1ccccc1NC(=S)N/N=C/c1cccc(C)n1 | > 100 |
| CCOC(=O)/C=C/[C@@H](CC)O[Si](C(C)C)(C(C)C)C(C)C | > 100 |
| Cc1c(O)c(=O)ccn1CCc1ccc(O)cc1 | > 100 |

Each molecule was assayed on ACHN renal (assay: inhibition of tumour cell growth, NCI panel, 48 h).

| Structure (SMILES) | TGI [µM] |
| --- | --- |
| Nc1cc2c3c(cccc3c1)C(=O)N(c1ccc(OCCN3CCCC3)cc1)C2=O | 26.5 |
| Cc1cc2ccc(N)nc2[nH]c1=O | > 100 |
| O=C(N/N=C\c1ccc([N+](=O)[O-])s1)c1ccncc1 | > 60.8 |
| C=C1C(=O)OC2C3OC(C)(CCC(O)C3COC(C)=O)CC(OC(=O)/C(=C/C)COC(C)=O)C12 (stereo unspecified) | 0.452 |
| COc1ccccc1NC(=S)N/N=C/c1cccc(C)n1 | 25.6 |
| CCOC(=O)/C=C/[C@@H](CC)O[Si](C(C)C)(C(C)C)C(C)C | > 100 |
| Cc1c(O)c(=O)ccn1CCc1ccc(O)cc1 | > 100 |
